What follows are compounds tested on Per2-dLuc U2OS reporter cells (assay: Per2 assay for evaluating the potency of test compounds (high-throughput circadian assay)). Settings: Homo sapiens, U2OS, stable U2OS reporter cells harboring Per2-dLuc; luminescence monitored over 4-5 days at 35° C.
Assay type: cell-based
In short: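 Compounds (0.5% DMSO final) were added right after serum-shock synchronization of Per2-dLuc U2OS reporter cells in minimal medium containing 1.0 mM beetle luciferin. Reporter luminescence was followed at 35 °C for 4–5 days to extract rhythm period, amplitude and phase, and EC50 values were obtained from these.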

| SMILES | EC50 [nM] |
| --- | --- |
| CS(=O)(=O)NCC(O)Cn1c2ccc(F)cc2c2ccc(F)cc21 (stereo not shown) [Compound 168, N-(3-(2,6-Difluoro-9H-carbazol-9-yl)-2-hydroxypropyl)methanesulfonamide] | 391 |
| CC1(N(CC(O)Cn2c3ccccc3c3ccccc32)S(C)(=O)=O)CCCC1 (stereo not shown) [Compound 143, N-(3-(9H-Carbazol-9-yl)-2-hydroxypropyl)-N-(1-methylcyclopentyl)methanesulfonamide] | 28 |
| CCc1ccc(N(CC(O)Cn2c3ccc(F)cc3c3cc(F)ccc32)S(C)(=O)=O)cc1 (stereo not shown) [Compound 201, N-(3-(3,6-Difluoro-9H-carbazol-9-yl)-2-hydroxypropyl)-N-(4-ethylphenyl)methanesulfonamide] | 1570 |
| CC(O)(CN1CCN(C2CCCC2)S1(=O)=O)Cn1c2ccc(F)cc2c2cc(F)ccc21 (stereo not shown) [Compound 232] | 2580 |
| Cc1ccccc1N(CC(O)Cn1c2ccccc2c2ccccc21)S(C)(=O)=O (stereo not shown) [Compound 62, N-(3-(9H-Carbazol-9-yl)-2-hydroxypropyl)-N-o-tolylmethanesulfonamide] | 1330 |
| CS(=O)(=O)N(CC(O)Cn1c2ccccc2c2ccccc21)C1CC(F)(F)C1 (stereo not shown) [Compound 133, N-(3-(9H-Carbazol-9-yl)-2-hydroxypropyl)-N-(3,3-difluorocyclobutyl)methanesulfonamide] | 1530 |
| CS(=O)(=O)N(CC(O)Cn1c2ccccc2c2ccccc21)CC1CCCO1 (stereo not shown) [Compound 51, N-(3-(9H-Carbazol-9-yl)-2-hydroxypropyl)-N-((tetrahydrofuran-2-yl)methyl)methanesulfonamide] | 371 |
| CC1CCN(CC(O)Cn2c3ccc(F)cc3c3cc(F)ccc32)S1(=O)=O (stereo not shown) [Compound 177] | 202 |
| CN(CC(O)Cn1c2ccc(F)cc2c2cc(F)ccc21)S(C)(=O)=O (stereo not shown) [Compound 89, N-(3-(3,6-Difluoro-9H-carbazol-9-yl)-2-hydroxypropyl)-N-methylmethanesulfonamide] | 360 |
| CS(=O)(=O)N(CC(O)Cn1c2ccccc2c2ccccc21)c1cccnn1 (stereo not shown) [Compound 79, N-(3-(9H-Carbazol-9-yl)-2-hydroxypropyl)-N-(pyridazin-3-yl)methanesulfonamide] | 2800 |
| O=S1(=O)NCCN1CC(O)Cn1c2ccc(F)cc2c2cc(F)ccc21 (stereo not shown) [Compound 175] | 35 |
| CC1CC(N(CC(O)Cn2c3ccc(F)cc3c3cc(F)ccc32)S(C)(=O)=O)C1 (stereo not shown) [Compound 190, N-(3-(3,6-Difluoro-9H-carbazol-9-yl)-2-hydroxypropyl)-N-(3-methylcyclobutyl)methanesulfonamide] | 211 |
| COC1CCS(=O)(=O)N(CC(O)Cn2c3ccccc3c3ccccc32)C1 (stereo not shown) [Compound 112, N-(3-(9H-Carbazol-9-yl)-2-hydroxypropyl)-4-methoxy-1,2-thiazinane-1,1-dioxide] | 44 |
| CS(=O)(=O)N(CC(O)Cn1c2ccccc2c2ccccc21)C1CCCCC1(F)F (stereo not shown) [Compound 135, N-(3-(9H-Carbazol-9-yl)-2-hydroxypropyl)-N-(2,2-difluorocyclohexyl)methanesulfonamide] | 609 |
| CS(=O)(=O)N(CC(O)Cn1c2ccccc2c2ccccc21)c1ccccc1 (stereo not shown) [Compound 23, N-(3-(9H-Carbazol-9-yl)-2-hydroxypropyl)-N-phenylmethanesulfonamide] | 90 |
| COC1CCS(=O)(=O)N(CC(O)Cn2c3ccc(F)cc3c3cc(F)ccc32)C1 (stereo not shown) [Compound 155, N-(3-(3,6-Difluoro-9H-carbazol-9-yl)-2-hydroxypropyl)-4-methoxy-1,2-thiazinane-1,1-dioxide] | 324 |
| O=S1(=O)CCCCN1C[C@H](O)Cn1c2ccccc2c2ccccc21 [Compound 41, (R)-N-(3-(9H-Carbazol-9-yl)-2-hydroxypropyl)-1,2-thiazinane 1,1-dioxide] | 343 |
| COCCN(CC(O)Cn1c2cc(F)ccc2c2ccc(F)cc21)S(C)(=O)=O (stereo not shown) [Compound 95, N-(3-(2,7-Difluoro-9H-carbazol-9-yl)-2-hydroxypropyl)-N-(2-methoxyethyl)methanesulfonamide] | 2740 |
| O=S1(=O)CCCCN1CC(O)Cn1c2cc(F)ccc2c2ccc(F)cc21 (stereo not shown) [Compound 91, N-(3-(2,7-Difluoro-9H-carbazol-9-yl)-2-hydroxypropyl)-1,2-thiazinane 1,1-dioxide] | 150 |
| O=S1(=O)N(CC(O)Cn2c3ccc(F)cc3c3cc(F)ccc32)CCCN1C1CCCC1 (stereo not shown) [Compound 220, 2-(3-(3,6-Difluoro-9H-carbazol-9-yl)-2-hydroxypropyl)-6-cyclopentyl-1,2,6-thiadiazinane-1,1-dioxide] | 1660 |
| CC(C)N1CCN(CC(C)(O)Cn2c3ccc(F)cc3c3cc(F)ccc32)S1(=O)=O (stereo not shown) [Compound 225] | 3090 |
| COC(=O)N1CCC(N(CC(O)Cn2c3ccccc3c3ccccc32)S(C)(=O)=O)CC1 (stereo not shown) [Compound 129, Methyl 4-(N-(3-(9H-carbazol-9-yl)-2-hydroxypropyl)methylsulfonamido)piperidine-1-carboxylate] | 386 |

| SMILES | EC50 [nM] |
| --- | --- |
| CC(O)(CN1CCN(C2CCC2)S1(=O)=O)Cn1c2ccc(F)cc2c2cc(F)ccc21 (stereo not shown) [Compound 235] | 6460 |
| CS(=O)(=O)CCN(CC(O)Cn1c2ccccc2c2ccccc21)S(C)(=O)=O (stereo not shown) [Compound 55, N-(3-(9H-Carbazol-9-yl)-2-hydroxypropyl)-N-(2-(methylsulfonyl)ethyl)methanesulfonamide] | 2310 |
| CC1CCCN(CC(O)Cn2c3ccccc3c3ccccc32)S1(=O)=O (stereo not shown) [Compound 111, N-(3-(9H-Carbazol-9-yl)-2-hydroxypropyl)-6-methyl-1,2-thiazinane-1,1-dioxide] | 84 |
| O=S1(=O)c2ccccc2CCN1CC(O)Cn1c2ccccc2c2ccccc21 (stereo not shown) [Compound 43, N-(3-(9H-Carbazol-9-yl)-2-hydroxypropyl)-3,4-dihydro-2H-benzo[e][1,2]thiazine 1,1-dioxide] | 3000 |
| O=S1(=O)CCc2ccccc2N1CC(O)Cn1c2ccccc2c2ccccc21 (stereo not shown) [Compound 37, N-(3-(9H-Carbazol-9-yl)-2-hydroxypropyl)-3,4-dihydro-1H-benzo[c][1,2]thiazine 2,2-dioxide] | 34 |
| CN1CCN(CC(C)(O)Cn2c3ccc(F)cc3c3cc(F)ccc32)S1(=O)=O (stereo not shown) [Compound 174] | 80 |
| CC1CN(CC(O)Cn2c3ccc(F)cc3c3cc(F)ccc32)S(=O)(=O)C1 (stereo not shown) [Compound 194, 2-(3-(3,6-Difluoro-9H-carbazol-9-yl)-2-hydroxypropyl)-4-methylisothiazolidine-1,1-dioxide] | 78 |
| CS(=O)(=O)N(Cc1ccco1)CC(O)Cn1c2ccccc2c2cccc(F)c21 (stereo not shown) [Compound 236, N-(3-(1-Fluoro-9H-carbazol-9-yl)-2-hydroxypropyl)-N-(furan-2-ylmethyl)methanesulfonamide] | 620 |
| COCCN(CC(O)Cn1c2cc(F)ccc2c2c(F)cccc21)S(C)(=O)=O (stereo not shown) [Compound 99, N-(3-(2,5-Difluoro-9H-carbazol-9-yl)-2-hydroxypropyl)-N-(2-methoxyethyl)methanesulfonamide] | 3550 |
| CC(O)(CN1CCCCS1(=O)=O)Cn1c2ccc(F)cc2c2cc(F)ccc21 (stereo not shown) [Compound 116, 2-(3-(3,6-Difluoro-9H-carbazol-9-yl)-2-hydroxy-2-methylpropyl)-1,2-thiazinane 1,1-dioxide] | 540 |
| CC(C)S(=O)(=O)N(Cc1ccco1)CC(O)Cn1c2ccccc2c2ccccc21 (stereo not shown) [Compound 82, N-(3-(9H-Carbazol-9-yl)-2-hydroxypropyl)-N-(furan-2-ylmethyl)propane-2-sulfonamide] | 158 |
| CN(CC(O)Cn1c2ccccc2c2ccccc21)S(C)(=O)=O (stereo not shown) [Compound 32, N-(3-(9H-Carbazol-9-yl)-2-hydroxypropyl)-N-methylmethanesulfonamide] | 100 |
| O=S(=O)(C1CCOC1)N(Cc1ccco1)CC(O)Cn1c2ccccc2c2ccccc21 (stereo not shown) [Compound 85, N-(3-(9H-Carbazol-9-yl)-2-hydroxypropyl)-N-(furan-2-ylmethyl)tetrahydrofuran-3-sulfonamide] | 510 |
| O=S1(=O)C(F)CCN1CC(O)Cn1c2ccccc2c2ccccc21 (stereo not shown) [Compound 120, 2-(3-(9H-Carbazol-9-yl)-2-hydroxypropyl)-5-fluoro-isothiazolidine-1,1-dioxide] | 23 |
| CC1(C)CCC(N(CC(O)Cn2c3ccccc3c3ccccc32)S(C)(=O)=O)CC1 (stereo not shown) [Compound 141, N-(3-(9H-Carbazol-9-yl)-2-hydroxypropyl)-N-(4,4-dimethylcyclohexyl)methanesulfonamide] | 846 |
| CC1(N(CC(O)Cn2c3ccccc3c3ccccc32)S(C)(=O)=O)CCC1 (stereo not shown) [Compound 138, N-(3-(9H-Carbazol-9-yl)-2-hydroxypropyl)-N-(1-methylcyclobutyl)methanesulfonamide] | 41 |
| CS(=O)(=O)N(Cc1ccc(F)cc1)CC(O)Cn1c2ccccc2c2ccccc21 (stereo not shown) [Compound 60, N-(3-(9H-Carbazol-9-yl)-2-hydroxypropyl)-N-(4-fluorobenzyl)methanesulfonamide] | 1220 |
| CC1(N(CC(O)Cn2c3ccc(F)cc3c3cc(F)ccc32)S(C)(=O)=O)CCC1 (stereo not shown) [Compound 186, N-(3-(3,6-Difluoro-9H-carbazol-9-yl)-2-hydroxypropyl)-N-(1-methylcyclobutyl)methanesulfonamide] | 83 |
| CC(O)(CN1CCCNS1(=O)=O)Cn1c2ccc(F)cc2c2cc(F)ccc21 (stereo not shown) [Compound 172, 2-(3-(3,6-Difluoro-9H-carbazol-9-yl)-2-hydroxy-2-methylpropyl)-1,2,6-thiadiazinane-1,1-dioxide] | 375 |
| CS(=O)(=O)N(CC(O)Cn1c2ccccc2c2ccccc21)C1CCc2ccccc21 (single isomer, unassigned) [Compound 61, N-(3-(9H-Carbazol-9-yl)-2-hydroxypropyl)-N-(2,3-dihydro-1H-inden-1-yl)methanesulfonamide] | 4470 |
| O=S1(=O)N(CC(O)Cn2c3ccccc3c3ccccc32)CCCC1(F)F (stereo not shown) [Compound 122, 2-(3-(9H-Carbazol-9-yl)-2-hydroxypropyl)-6,6-difluoro-1,2-thiazinane-1,1-dioxide] | 329 |

Source: patent publication US10383880B2 (Reset Therapeutics, Inc., priority 2012, dated 2019)
